# Test results as given in PubChem BioAssay AID1918995 (Molecular Pharmacology Branch, DTP, NCI, 2023).
# pIC50: −log10 of the molar value.
# Test system: 324938-238-R-J1-PDC complex spheroid growth, % test/control
# Assay: Anticancer human tumor 324938-238-R-J1-PDC patient-derived bladder carcinoma cell line growth inhibition [AhR]
# Settings: for pIC50: curve of first compound; for viability, T/C: stronger effect = lower value
# Procedure, shortened: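 Spheroids combined tumor cells with HUVEC endothelial cells and human MSCs as stroma. AhR antagonists were paired with standard or investigational drugs, each dosed in half-log steps down from near clinical Cmax, or from 10 microM where Cmax was unknown.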
# [1] = second compound 0.1 µM, first compound 0.0316 µM
# [2] = second compound 0.1 µM, first compound 0.1 µM
# [3] = second compound 0.1 µM, first compound 0.316 µM
# [4] = second compound 0.1 µM, first compound 1 µM
# [5] = second compound 0.1 µM, first compound 3.16 µM
# [6] = second compound 0.1 µM, first compound 10 µM
# [7] = second compound 0.316 µM, first compound 0.0316 µM
# [8] = second compound 0.316 µM, first compound 0.1 µM
# [9] = second compound 0.316 µM, first compound 0.316 µM
# [10] = second compound 0.316 µM, first compound 1 µM
# [11] = second compound 0.316 µM, first compound 3.16 µM
# [12] = second compound 0.316 µM, first compound 10 µM
# [13] = second compound 1 µM, first compound 0.0316 µM
# [14] = second compound 1 µM, first compound 0.1 µM
# [15] = second compound 1 µM, first compound 0.316 µM
# [16] = second compound 1 µM, first compound 1 µM
# [17] = second compound 1 µM, first compound 3.16 µM
# [18] = second compound 1 µM, first compound 10 µM
# [19] = second compound 3.16 µM, first compound 0.0316 µM
# [20] = second compound 3.16 µM, first compound 0.1 µM
# [21] = second compound 3.16 µM, first compound 0.316 µM
# [22] = second compound 3.16 µM, first compound 1 µM
# [23] = second compound 3.16 µM, first compound 3.16 µM
# [24] = second compound 3.16 µM, first compound 10 µM
# [25] = second compound 10 µM, first compound 0.0316 µM
# [26] = second compound 10 µM, first compound 0.1 µM
# [27] = second compound 10 µM, first compound 0.316 µM
# [28] = second compound 10 µM, first compound 1 µM
# [29] = second compound 10 µM, first compound 3.16 µM
# [30] = second compound 10 µM, first compound 10 µM
# 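Further: spheroids exposed to agents for seven days before viability read.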
structure (smiles),measurement,setting,value
CC1(C)CCC(CN2CCN(c3ccc(C(=O)NS(=O)(=O)c4ccc(NCC5CCOCC5)c([N+](=O)[O-])c4)c(Oc4cnc5[nH]ccc5c4)c3)CC2)=C(c2ccc(Cl)cc2)C1 + Cc1ccccc1N=Nc1ccc(NC(=O)c2ccnn2C)c(C)c1,pIC50,second compound 0.1 µM,5.02
same,pIC50,second compound 0.316 µM,< 5.00
same,pIC50,second compound 1 µM,5.06
same,pIC50,second compound 3.16 µM,5.22
same,pIC50,second compound 10 µM,5.25
same,"viability, T/C",[1],87.7%
same,"viability, T/C",[2],92.8%
same,"viability, T/C",[3],93.6%
same,"viability, T/C",[4],87.8%
same,"viability, T/C",[5],80.7%
same,"viability, T/C",[6],48.8%
same,"viability, T/C",[7],89.4%
same,"viability, T/C",[8],90.5%
same,"viability, T/C",[9],88%
same,"viability, T/C",[10],83.3%
same,"viability, T/C",[11],72%
same,"viability, T/C",[12],52%
same,"viability, T/C",[13],83.5%
same,"viability, T/C",[14],85.8%
same,"viability, T/C",[15],80.7%
same,"viability, T/C",[16],71.8%
same,"viability, T/C",[17],71.1%
same,"viability, T/C",[18],46.7%
same,"viability, T/C",[19],72.4%
same,"viability, T/C",[20],71.8%
same,"viability, T/C",[21],68.9%
same,"viability, T/C",[22],69%
same,"viability, T/C",[23],61.3%
same,"viability, T/C",[24],41%
same,"viability, T/C",[25],73.8%
same,"viability, T/C",[26],70.2%
same,"viability, T/C",[27],69.6%
same,"viability, T/C",[28],67.9%
same,"viability, T/C",[29],58%
same,"viability, T/C",[30],41.9%
CCN(c1cc(-c2ccc(CN3CCOCC3)cc2)cc(C(=O)NCc2c(C)cc(C)[nH]c2=O)c1C)C1CCOCC1 + Cc1ccccc1N=Nc1ccc(NC(=O)c2ccnn2C)c(C)c1,pIC50,second compound 0.1 µM,< 5.52
same,pIC50,second compound 0.316 µM,< 5.52
same,pIC50,second compound 1 µM,< 5.52
same,pIC50,second compound 3.16 µM,< 5.52
same,pIC50,second compound 10 µM,< 5.52
same,"viability, T/C","second compound 0.1 µM, first compound 0.00949 µM",123%
same,"viability, T/C","second compound 0.1 µM, first compound 0.03 µM",113%
same,"viability, T/C","second compound 0.1 µM, first compound 0.0949 µM",111%
same,"viability, T/C","second compound 0.1 µM, first compound 0.3 µM",93.2%
same,"viability, T/C","second compound 0.1 µM, first compound 0.949 µM",96.2%
same,"viability, T/C","second compound 0.1 µM, first compound 3 µM",93.3%
same,"viability, T/C","second compound 0.316 µM, first compound 0.00949 µM",100%
same,"viability, T/C","second compound 0.316 µM, first compound 0.03 µM",111%
same,"viability, T/C","second compound 0.316 µM, first compound 0.0949 µM",106%
same,"viability, T/C","second compound 0.316 µM, first compound 0.3 µM",103%
same,"viability, T/C","second compound 0.316 µM, first compound 0.949 µM",108%
same,"viability, T/C","second compound 0.316 µM, first compound 3 µM",94.8%
same,"viability, T/C","second compound 1 µM, first compound 0.00949 µM",102%
same,"viability, T/C","second compound 1 µM, first compound 0.03 µM",101%
same,"viability, T/C","second compound 1 µM, first compound 0.0949 µM",94.9%
same,"viability, T/C","second compound 1 µM, first compound 0.3 µM",90%
same,"viability, T/C","second compound 1 µM, first compound 0.949 µM",98.7%
same,"viability, T/C","second compound 1 µM, first compound 3 µM",93.2%
same,"viability, T/C","second compound 3.16 µM, first compound 0.00949 µM",82.4%
same,"viability, T/C","second compound 3.16 µM, first compound 0.03 µM",100%
same,"viability, T/C","second compound 3.16 µM, first compound 0.0949 µM",81.9%
same,"viability, T/C","second compound 3.16 µM, first compound 0.3 µM",90.2%
same,"viability, T/C","second compound 3.16 µM, first compound 0.949 µM",91.8%
same,"viability, T/C","second compound 3.16 µM, first compound 3 µM",93.6%
same,"viability, T/C","second compound 10 µM, first compound 0.00949 µM",88.4%
same,"viability, T/C","second compound 10 µM, first compound 0.03 µM",89.6%
same,"viability, T/C","second compound 10 µM, first compound 0.0949 µM",82%
same,"viability, T/C","second compound 10 µM, first compound 0.3 µM",87%
same,"viability, T/C","second compound 10 µM, first compound 0.949 µM",77.5%
same,"viability, T/C","second compound 10 µM, first compound 3 µM",84.8%
COc1cc(Nc2ncc3c(n2)-c2ccc(Cl)cc2C(c2c(F)cccc2OC)=NC3)ccc1C(=O)O + Cc1ccccc1N=Nc1ccc(NC(=O)c2ccnn2C)c(C)c1,pIC50,second compound 0.1 µM,6.86
same,pIC50,second compound 0.316 µM,7.00
same,pIC50,second compound 1 µM,7.07
same,pIC50,second compound 3.16 µM,7.18
same,pIC50,second compound 10 µM,7.15
same,"viability, T/C",[1],72.5%
same,"viability, T/C",[2],55.7%
same,"viability, T/C",[3],36.1%
same,"viability, T/C",[4],31.9%
same,"viability, T/C",[5],31.6%
same,"viability, T/C",[6],39.4%
same,"viability, T/C",[7],66.7%
same,"viability, T/C",[8],50.1%
same,"viability, T/C",[9],32.8%
same,"viability, T/C",[10],32.5%
same,"viability, T/C",[11],33.8%
same,"viability, T/C",[12],34.3%
same,"viability, T/C",[13],65.1%
same,"viability, T/C",[14],47.6%
same,"viability, T/C",[15],31.6%
same,"viability, T/C",[16],31.2%
same,"viability, T/C",[17],30.4%
same,"viability, T/C",[18],34.8%
same,"viability, T/C",[19],57.4%
same,"viability, T/C",[20],45.9%
same,"viability, T/C",[21],27.5%
same,"viability, T/C",[22],28.7%
same,"viability, T/C",[23],27.5%
same,"viability, T/C",[24],30.1%
same,"viability, T/C",[25],60.4%
same,"viability, T/C",[26],49.1%
same,"viability, T/C",[27],34.8%
same,"viability, T/C",[28],36.9%
same,"viability, T/C",[29],37%
same,"viability, T/C",[30],41.7%
Cn1ncnc1C1c2n[nH]c(=O)c3cc(F)cc(c23)NC1c1ccc(F)cc1 (stereo not given) + Cc1ccccc1N=Nc1ccc(NC(=O)c2ccnn2C)c(C)c1,pIC50,second compound 0.1 µM,< 7.00
same,pIC50,second compound 0.316 µM,< 7.00
same,pIC50,second compound 1 µM,< 7.00
same,pIC50,second compound 3.16 µM,< 7.00
same,pIC50,second compound 10 µM,< 7.00
same,"viability, T/C","second compound 0.1 µM, first compound 0.000316 µM",103%
same,"viability, T/C","second compound 0.1 µM, first compound 0.001 µM",114%
same,"viability, T/C","second compound 0.1 µM, first compound 0.00316 µM",107%
same,"viability, T/C","second compound 0.1 µM, first compound 0.01 µM",83.6%
same,"viability, T/C",[1],81.1%
same,"viability, T/C",[2],63.8%
same,"viability, T/C","second compound 0.316 µM, first compound 0.000316 µM",98.4%
same,"viability, T/C","second compound 0.316 µM, first compound 0.001 µM",100%
same,"viability, T/C","second compound 0.316 µM, first compound 0.00316 µM",103%
same,"viability, T/C","second compound 0.316 µM, first compound 0.01 µM",74.4%
same,"viability, T/C",[7],76.1%
same,"viability, T/C",[8],69%
same,"viability, T/C","second compound 1 µM, first compound 0.000316 µM",92%
same,"viability, T/C","second compound 1 µM, first compound 0.001 µM",96.5%
same,"viability, T/C","second compound 1 µM, first compound 0.00316 µM",95.7%
same,"viability, T/C","second compound 1 µM, first compound 0.01 µM",66.5%
same,"viability, T/C",[13],85%
same,"viability, T/C",[14],62.4%
same,"viability, T/C","second compound 3.16 µM, first compound 0.000316 µM",83.9%
same,"viability, T/C","second compound 3.16 µM, first compound 0.001 µM",83.7%
same,"viability, T/C","second compound 3.16 µM, first compound 0.00316 µM",86.9%
same,"viability, T/C","second compound 3.16 µM, first compound 0.01 µM",73.6%
same,"viability, T/C",[19],78.3%
same,"viability, T/C",[20],61.1%
same,"viability, T/C","second compound 10 µM, first compound 0.000316 µM",78.2%
same,"viability, T/C","second compound 10 µM, first compound 0.001 µM",77.8%
same,"viability, T/C","second compound 10 µM, first compound 0.00316 µM",77.2%
same,"viability, T/C","second compound 10 µM, first compound 0.01 µM",73.5%
same,"viability, T/C",[25],69.2%
same,"viability, T/C",[26],66%
NS(=O)(=O)OCC1CC(n2ccc3c(NC4CCc5ccccc54)ncnc32)CC1O (stereo not given) + Cc1ccccc1N=Nc1ccc(NC(=O)c2ccnn2C)c(C)c1,pIC50,second compound 0.1 µM,5.87
same,pIC50,second compound 0.316 µM,5.97
same,pIC50,second compound 1 µM,5.98
same,pIC50,second compound 3.16 µM,6.06
same,pIC50,second compound 10 µM,6.03
same,"viability, T/C",[1],85.5%
same,"viability, T/C",[2],103%
same,"viability, T/C",[3],79.7%
same,"viability, T/C",[4],59%
same,"viability, T/C",[5],28.9%
same,"viability, T/C",[6],27.7%
same,"viability, T/C",[7],93.2%
same,"viability, T/C",[8],88.8%
same,"viability, T/C",[9],76.1%
same,"viability, T/C",[10],55.4%
same,"viability, T/C",[11],23.4%
same,"viability, T/C",[12],30.1%
same,"viability, T/C",[13],88%
same,"viability, T/C",[14],83.4%
same,"viability, T/C",[15],82.7%
same,"viability, T/C",[16],50.9%
same,"viability, T/C",[17],26.7%
same,"viability, T/C",[18],35.2%
same,"viability, T/C",[19],79.8%
same,"viability, T/C",[20],72.9%
same,"viability, T/C",[21],73.7%
same,"viability, T/C",[22],46.7%
same,"viability, T/C",[23],22.9%
same,"viability, T/C",[24],32%
same,"viability, T/C",[25],72.7%
same,"viability, T/C",[26],81%
same,"viability, T/C",[27],74.1%
same,"viability, T/C",[28],48.4%
same,"viability, T/C",[29],35.5%
same,"viability, T/C",[30],35.8%
